Experimental findings from US20250230154A1, “COMPOUND HAVING SHP2 PROTEIN DEGRADING ACTIVITY, AND MEDICAL USES THEREOF” (UBIX THERAPEUTICS, INC., priority 2021, published 2025) are described below.

For this assay, the target named is T1, SHP2 protein (Homo sapiens, UniProt Q06124).
T1 sequence (Q06124 1-593): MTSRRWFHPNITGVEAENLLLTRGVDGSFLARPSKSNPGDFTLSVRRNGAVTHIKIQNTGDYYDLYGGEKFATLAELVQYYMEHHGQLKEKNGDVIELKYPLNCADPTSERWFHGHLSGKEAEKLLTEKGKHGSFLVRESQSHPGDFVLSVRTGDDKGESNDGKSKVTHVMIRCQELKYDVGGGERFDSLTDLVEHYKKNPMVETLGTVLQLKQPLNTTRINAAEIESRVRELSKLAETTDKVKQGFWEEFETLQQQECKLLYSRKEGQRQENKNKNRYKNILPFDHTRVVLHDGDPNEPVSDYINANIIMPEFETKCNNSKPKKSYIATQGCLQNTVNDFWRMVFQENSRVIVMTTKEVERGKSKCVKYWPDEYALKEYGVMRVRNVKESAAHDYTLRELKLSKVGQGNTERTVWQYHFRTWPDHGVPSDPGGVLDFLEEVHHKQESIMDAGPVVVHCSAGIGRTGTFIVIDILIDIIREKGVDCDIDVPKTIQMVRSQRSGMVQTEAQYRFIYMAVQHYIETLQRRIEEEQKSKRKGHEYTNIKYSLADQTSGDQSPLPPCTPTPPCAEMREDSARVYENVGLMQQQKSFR
Description: Measurement of SHP2 protein degradation in MV-4-11 cells (western blotting). The class given is cell-based. Also on record: endogenous in cells; host or cells: MV-4-11. Particulars: MV-4-11 cells, 24 hours. Here is the method: Experimental Example 2: Measurement of SHP2 Protein Degradation in MV-4-11 Cells
MV-4-11 cells were treated with the synthesized Example compound, and the amount of SHP2 protein present in the cells was measured using western blotting detection. The protocol of the experiment conducted using MV-4-11 cells was as follows:
[Culture] MV-4-11 cells resuspended in IMDM MEDIUM (Hyclone, SH30228.01) containing 5% FBS (Hyclone, SV30207.02) and 1% Penicillin-streptomycin (Welgene, LS 202-02) were seeded at a density of 1×10^6/mL/well in a 12-well plate in an amount of 1 ml each.
[Compound treatment] The 12-well plate was treated as follows: Cells were treated with compounds at a final concentration of […] made by serial dilution of 10 mM stock with DMSO in 1/100 increments […]. After 24 hours, cells were harvested. For the negative control group, DMSO diluted 1/100 to the media (3 mL DMSO+297 mL media) was added.
[Harvest] Each well was collected in a 1.5 mL microtube by pipetting with a 1 mL pipette and centrifuged (500 g, 5 min, 4° C.). The supernatant was removed. It was washed with PBS, and then centrifuged again (500 g, 5 min, 4° C.). Thereafter, the supernatant was removed to prepare a pellet.
[Cell Lysis and Sample preparation] Lysis buffer was prepared as follows: […] of RIPA buffer (Biosesang, RC2038-050-00)+0.5 mM PMSF (SIGMA, P7626)+1× Protease/Phosphatase Inhibitor (Cell signaling, 5872S) per well was added and placed on ice for 30 minutes (vortexing at 0 and 30 minutes, respectively). After sonication process (10 seconds pulse, 30 seconds rest, 5 cycles, 70% amplification), centrifugation (15000 g, 15 min, 4° C.) was performed, and then only the supernatant was taken and transferred to a microtube. The sample was diluted ¼ with RIPA buffer in a 96-well plate, and mixed with A:B=50:1 of the BCA Protein Assay Kit (iNtRON, 21071). […] each of the mixture was left at 37° C. for 30 minutes, and cooled for 10 minutes. Then, absorbance was measured at 562 nm with the SYNERGY H1 microplate reader from BioTek. After making a sample by quantifying the protein with the measured value, boiling was performed at 70° C. for 10 minutes. At this time, the sample buffer used was a mixture of NuPAGE or Bolt 4× sample buffer (Invitrogen) and each 10× sample reducing agent according to the gel to be used, and RIPA buffer was used for protein dilution.
[Western blotting detection method] The same amount of sample was loaded on NuPAGE or Bolt Bis-tris 4-12% gradient gel and run (200 V, 35 minutes). It was transferred to 0.2 mm NC membrane with Trans-blot Turbo (BIO-RAD) (1.3 A constant, 25 V limit, 15 minutes). Blocking was performed at room temperature for 1 hour with Skim milk or Intercept Blocking Buffer (LI-COR, 927-60001):0.1% TBST=1:1. Anti-SHPTP2 Mouse (1:500 in 2% BSA/0.2% TBST, size: 70 kDa, Santacruz sc-7384) was incubated overnight at 4° C., and Anti-GAPDH Rabbit (1:2,000 in 2% BSA/0.2% TBST, size: 37 kDa, CST #2118) was incubated at room temperature for 1 hour 30 minutes or 3 hours. It was washed 3 times for 5 minutes each with 0.2% TBST washing buffer. Secondary antibody Anti-Rabbit IgG (1:5,000 in 2% BSA/0.2% TBST, CST), IRDye® 680RD Goat anti-Rabbit IgG Secondary Antibody (1:10,000 in 2% BSA/0.2% TBST, LI-COR 926-68071) were added and incubated for 45 minutes on a rocker at room temperature. It was washed 5 times for 5 minutes each with 0.2% TBST washing buffer and detected with LI-COR's Odyssey. At this time, SHPTP2 was detected using SuperSignal West Pico PLUS Chemiluminescent Substrate, and house-keeping genes were also detected.
In the results of Table 4 below, Compounds 1-7, 13-19, and 21-26 are results in KYSE-520 cells, and the others are results in MV-4-11 cells.
(A western blot detects proteins with antibodies after separation by electrophoresis.)

Consider `Cc1ncsc1-c1ccc(CNC(=O)[C@@H]2C[C@@H](O)CN2C(=O)[C@@H](NC(=O)C2(F)CC2)C(C)(C)C)c(OCC2CCN(C(=O)CC(=O)Nc3cccc(Sc4cnc(N5CCC(C)(N)CC5)cn4)c3Cl)CC2)c1` [Example 29, (2S,4R)—N-(2-((1-(3-((3-((5-(4-amino-4-methylpiperidin-1-yl)pyrazin-2-yl)thio)-2-chlorophenyl)amino)-3-oxopropanoyl)piperidin-4-yl)methoxy)-4-(4-methylthiazol-5-yl)benzyl)-1-((S)-2-(1-fluorocyclopropane-1-carboxamido)-3,3-dimethylbutanoyl)-4-hydroxypyrrolidine-2-carboxamide], for which the “SHP2 degradation (%) 10 nM” value stood at 84% and the “SHP2 degradation (%) 100 nM” value is recorded as 95.5%.

Regarding `Cc1ncsc1-c1ccc(CNC(=O)[C@@H]2C[C@@H](O)CN2C(=O)[C@@H](NC(=O)C2(F)CC2)C(C)(C)C)c(OCC2CCN(C(=O)CC(=O)Nc3cccc(Sc4ncc(N5CCC(C)(N)CC5)nc4N)c3Cl)CC2)c1` [Example 30, (2S,4R)—N-(2-((1-(3-((3-((3-amino-5-(4-amino-4-methylpiperidin-1-yl)pyrazin-2-yl)thio)-2-chlorophenyl)amino)-3-oxopropanoyl)piperidin-4-yl)methoxy)-4-(4-methylthiazol-5-yl)benzyl)-1-((S)-2-(1-fluorocyclopropane-1-carboxamido)-3,3-dimethylbutanoyl)-4-hydroxypyrrolidine-2-carboxamide], the “SHP2 degradation (%) 10 nM” value is on record as 71.5% and the “SHP2 degradation (%) 100 nM” value turned out to be 95.5%.

With `Cc1ncsc1-c1ccc(CNC(=O)[C@@H]2C[C@@H](O)CN2C(=O)[C@@H](NC(=O)C2(F)CC2)C(C)(C)C)c(OCC2CCN(C(=O)CC(=O)Nc3cccc(Sc4cnc(N5CCC(C)(CN)CC5)cn4)c3Cl)CC2)c1` [Example 31, (2S,4R)—N-(2-((1-(3-((3-((5-(4-(aminomethyl)-4-methylpiperidin-1-yl)pyrazin-2-yl)thio)-2-chlorophenyl)amino)-3-oxopropanoyl)piperidin-4-yl)methoxy)-4-(4-methylthiazol-5-yl)benzyl)-1-((S)-2-(1-fluorocyclopropane-1-carboxamido)-3,3-dimethylbutanoyl)-4-hydroxypyrrolidine-2-carboxamide], the “SHP2 degradation (%) 10 nM” value came to 76%, the “SHP2 degradation (%) 100 nM” value is 97% and the “SHP2 degradation (%) 1000 nM” value was 97.5%.

For `Cc1ncsc1-c1ccc(CNC(=O)[C@@H]2C[C@@H](O)CN2C(=O)[C@@H](NC(=O)C2(F)CC2)C(C)(C)C)c(OCC2CCN(C(=O)CC(=O)Nc3cccc(Sc4ncc(N5CCC(C)(CN)CC5)nc4N)c3Cl)CC2)c1` [Example 32, (2S,4R)—N-(2-((1-(3-((3-((3-amino-5-(4-(aminomethyl)-4-methylpiperidin-1-yl)pyrazin-2-yl)thio)-2-chlorophenyl)amino)-3-oxopropanoyl)piperidin-4-yl)methoxy)-4-(4-methylthiazol-5-yl)benzyl)-1-((S)-2-(1-fluorocyclopropane-1-carboxamido)-3,3-dimethylbutanoyl)-4-hydroxypyrrolidine-2-carboxamide], the “SHP2 degradation (%) 10 nM” value stood at 75% and the “SHP2 degradation (%) 100 nM” value stood at 95%.

For `CC(=O)N[C@H](C(=O)N1C[C@H](O)C[C@H]1C(=O)NCc1ccc(-c2scnc2C)cc1OCC1CCN(C(=O)CC(=O)Nc2cccc(Sc3cnc(N4CCC(C)(CN)CC4)cn3)c2Cl)CC1)C(C)(C)C` [Example 33, (2S,4R)-1-((S)-2-acetamido-3,3-dimethylbutanoyl)-N-(2-((1-(3-((3-((5-(4-(aminomethyl)-4-methylpiperidin-1-yl)pyrazin-2-yl)thio)-2-chlorophenyl)amino)-3-oxopropanoyl)piperidin-4-yl)methoxy)-4-(4-methylthiazol-5-yl)benzyl)-4-hydroxypyrrolidine-2-carboxamide], the “SHP2 degradation (%) 10 nM” value is given as 90% and the “SHP2 degradation (%) 100 nM” value is listed as 96.5%.

As for `Cc1ncsc1-c1ccc(CNC(=O)[C@@H]2C[C@@H](O)CN2C(=O)[C@@H](NC(=O)C2(F)CC2)C(C)(C)C)c(OCCC2CCN(C(=O)CC(=O)Nc3cccc(Sc4cnc(N5CCC(C)(N)CC5)cn4)c3Cl)CC2)c1` [Example 34, (2S,4R)—N-(2-(2-(1-(3-((3-((5-(4-amino-4-methylpiperidin-1-yl)pyrazin-2-yl)thio)-2-chlorophenyl)amino)-3-oxopropanoyl)piperidin-4-yl)ethoxy)-4-(4-methylthiazol-5-yl)benzyl)-1-((S)-2-(1-fluorocyclopropane-1-carboxamido)-3,3-dimethylbutanoyl)-4-hydroxypyrrolidine-2-carboxamide], the “SHP2 degradation (%) 10 nM” value worked out at 77%, the “SHP2 degradation (%) 100 nM” value was 93.5% and the “SHP2 degradation (%) 1000 nM” value is listed as 94%.

For the compound `Cc1ncsc1-c1ccc(CNC(=O)[C@@H]2C[C@@H](O)CN2C(=O)[C@@H](NC(=O)C2(F)CC2)C(C)(C)C)c(OCCC2CCN(C(=O)CC(=O)Nc3cccc(Sc4ncc(N5CCC(C)(N)CC5)nc4N)c3Cl)CC2)c1` [Example 35, (2S,4R)—N-(2-(2-(1-(3-((3-((3-amino-5-(4-amino-4-methylpiperidin-1-yl)pyrazin-2-yl)thio)-2-chlorophenyl)amino)-3-oxopropanoyl)piperidin-4-yl)ethoxy)-4-(4-methylthiazol-5-yl)benzyl)-1-((S)-2-(1-fluorocyclopropane-1-carboxamido)-3,3-dimethylbutanoyl)-4-hydroxypyrrolidine-2-carboxamide], the “SHP2 degradation (%) 10 nM” value is reported as 74%, the “SHP2 degradation (%) 100 nM” value is on record as 93% and the “SHP2 degradation (%) 1000 nM” value stood at 93%.

As for `Cc1ncsc1-c1ccc(CNC(=O)[C@@H]2C[C@@H](O)CN2C(=O)[C@@H](NC(=O)C2(F)CC2)C(C)(C)C)c(OCCC2CCN(C(=O)CC(=O)Nc3cccc(Sc4cnc(N5CCC(C)(CN)CC5)cn4)c3Cl)CC2)c1` [Example 36, (2S,4R)—N-(2-(2-(1-(3-((3-((5-(4-(aminomethyl)-4-methylpiperidin-1-yl)pyrazin-2-yl)thio)-2-chlorophenyl)amino)-3-oxopropanoyl)piperidin-4-yl)ethoxy)-4-(4-methylthiazol-5-yl)benzyl)-1-((S)-2-(1-fluorocyclopropane-1-carboxamido)-3,3-dimethylbutanoyl)-4-hydroxypyrrolidine-2-carboxamide], the “SHP2 degradation (%) 10 nM” value is reported as 83.0%, the “SHP2 degradation (%) 100 nM” value is recorded as 93.5% and the “SHP2 degradation (%) 1000 nM” value is reported as 93.5%.
